Where a name gives a salt, the structure may show the parent alone. Read-outs that look alike come from different tables or passages of the source.
Tests used:
[1] = In vitro permeation study, HCE cell membranes; settings: human
HCE cell membranes = assay: In vitro permeation study, HCE cell membranes; settings: HCE, Papp × water solubility
[2] = In vitro permeation study, MDCK cell membranes; assay type: in vitro ADME, canine; settings: dog
Description: (§1) MDCK cells were seeded onto the coated filters at a concentration of about 100,000 cells/cm^2. The culture medium was both in apical and basolateral chambers during the whole culture period, and the culture medium was changed every day. The cells were confluent within three days. […] The incubator environment was the same as described above.
(§2) MDCK cells were used for the permeation study on the 4th day when the TER value was about 250 Ω×cm^2. HBSS (Gibco, Paisley, Skotlanti) /10 mM HEPES was used a buffer solution. The permeation study was performed as described above. All the permeation studies were performed at 37° C. using a horizontal plate mixer (Heidolph Inkubator 1000 and Titramax 1000; Heidolph Electro GmbH & Co., Kelheim, Germany). After the studies, TER was metered. The TER data were not changed during the permeability studies.
(§3) The apparent permeability coefficients were calculated as:
(§4) Papp=J/(C×S), (Equation 1)
(§5) Cs is the water solubility of nalmefene.

MDCK cell membranes = assay: In vitro permeation study, MDCK cell membranes; assay type: in vitro ADME, canine
Description: as §1, §2, §3, §4, §5

[3] = cited from earlier work
[4] = tested on: subjects with impaired control of alcohol drinking; assay: Randomized, double-blind, placebo-controlled dose-response study of nalmefene once daily for 16 weeks; assay type: in vivo, human; settings: for Spouse or significant other estimate of frequency of intoxication: At least once a week (number of subjects) / Spouse or significant other estimate of frequency of intoxication: At least once a week (share of subjects) / Spouse or significant other estimate of frequency of intoxication: Every day (number of subjects) / Spouse or significant other estimate of frequency of intoxication: Every day (share of subjects) / Spouse or significant other estimate of frequency of intoxication: Never (number of subjects) / Spouse or significant other estimate of frequency of intoxication: Never (share of subjects) / Spouse or significant other estimate of frequency of intoxication: Once or twice (number of subjects) / Spouse or significant other estimate of frequency of intoxication: Once or twice (share of subjects) / Spouse or significant other estimate of frequency of intoxication: Several times a month (number of subjects) / Spouse or significant other estimate of frequency of intoxication: Several times a month (share of subjects): week 16
Description: A randomized, double-blind, placebo-controlled, multicenter, parallel group, dose-response study was conducted comparing placebo and two doses of nalmefene.
The subjects were randomly allocated to receive placebo, 10 mg of nalmefene or 40 mg of nalmefene once daily for 16 weeks. […] During their participation in the study, the subjects were allowed to receive general counseling, but not any psychotherapy or other specific alcoholism treatment, including pharmacotherapy. The study consisted of a screening period (screening and inclusion visits) not exceeding 2 weeks, during which the eligibility of the study subjects were evaluated, and follow-up visits at 1, 3, 6, 9, 12, and 16 weeks after the study medication was started.
The alcohol consumption was assessed with the Time Line Follow Back Method. The primary efficacy variable was the number of Heavy Drinking Days (HDDs) per month (defined as 28 days). A Heavy Drinking Day (HDD) was defined as a day when a male subject consumed 5 or more, or a female subject consumed 4 or more standard drinks. A standard drink contains approximately 12 g of ethanol. Secondary efficacy measures included other drinking variables (number of Drinking Days (DDs), ratio of HDDs to DDs, total consumption, and maximum and average intensity of drinking), Obsessive Compulsive Drinking Scale (OCDS), Alcohol Dependence Scale (ADS) and Drinkers Inventory of Consequences -scale (DrInC), clinical laboratory markers (ALAT, GGT, CDT, and MCV) and collateral reports.
The monthly drinking of the subjects during the 12 weeks prior to the study was determined first to get a baseline. The total alcohol consumption was 25% higher in the FAH+ subject than in the FAH− subject. The number of HDDs and the number of DDs were at a similar level in all subgroups.
The estimate on the subject's frequency of intoxication by subject's spouse or significant other was obtained again at the end of the study. Within the FAH+ subjects, there were more subjects in nalmefene 40 mg groups in categories “never” and “once or twice” than in other groups, and no subjects in the categories “at least once a week” or “every day”.

[5] = Solubility of nalmefene HCl in water as a function of pH; assay type: physicochemical; settings: aqueous buffer, read-out: Matematically determined solubility in water
Description: as §5
Because the water solubility of nalmefene was not available in the literature for all the pH values used in the permeation study, the solubilities at pH values 6.5, 7.0, 7.5, and 8.0 were determined matematically from a diagram that described the logarithm of the solubility listed on Table 5 as a function of pH (Cs,pH).

[6] = cited from earlier work; remark: listed apart in the source

## C=C1CC[C@@]2(O)[C@H]3Cc4ccc(O)c5c4[C@@]2(CCN3CC2CC2)[C@H]1O5 [nalmefene]
[1]; pH 6.5
  Papp A→B at 180 min, 500 μM: 7.86 ± 0.29 ×10⁻⁶ cm/s
[1]; pH 7
  Papp A→B at 180 min, 500 μM: 12.1 ± 0.79 ×10⁻⁶ cm/s
[1]; pH 7.5
  Papp A→B at 180 min, 500 μM: 13.3 ± 0.61 ×10⁻⁶ cm/s
[1]; pH 8
  Papp A→B at 180 min, 500 μM: 13.6 ± 1.64 ×10⁻⁶ cm/s
HCE cell membranes; pH 6.5, n = 4
  Maximal administration rate Jmax × 10^−6 ± SD: 879 ± 32 × 10^−6 mg/(cm^2 s)
HCE cell membranes; pH 7.0, n = 4
  Maximal administration rate Jmax × 10^−6 ± SD: 1072 ± 70 × 10^−6 mg/(cm^2 s)
HCE cell membranes; pH 7.5, n = 4
  Maximal administration rate Jmax × 10^−6 ± SD: 423 ± 19 × 10^−6 mg/(cm^2 s)
HCE cell membranes; pH 8.0, n = 4
  Maximal administration rate Jmax × 10^−6 ± SD: 6.0 ± 0.7 × 10^−6 mg/(cm^2 s)
[2]; pH 6.5, n = 4, read-out: Permeability factor (Papp ± SD)
  Papp A→B at 180 min, 500 μM: 11.4 ± 0.59 ×10⁻⁶ cm/s
[2]; pH 7.0, n = 4, read-out: Permeability factor (Papp ± SD)
  Papp A→B at 180 min, 500 μM: 18.27 ± 0.16 ×10⁻⁶ cm/s
[2]; pH 7.5, n = 4, read-out: Permeability factor (Papp ± SD)
  Papp A→B at 180 min, 500 μM: 22.7 ± 1.08 ×10⁻⁶ cm/s
[2]; pH 8.0, n = 4, read-out: Permeability factor (Papp ± SD)
  Papp A→B at 180 min, 500 μM: 23.9 ± 2.49 ×10⁻⁶ cm/s
MDCK cell membranes; pH 6.5, n = 4, Papp × water solubility
  Maximal administration rate Jmax × 10^−6 ± SD: 1273 ± 66 × 10^−6 mg/(cm^2 s)
MDCK cell membranes; pH 7.0, n = 4, Papp × water solubility
  Maximal administration rate Jmax × 10^−6 ± SD: 1618 ± 14 × 10^−6 mg/(cm^2 s)
MDCK cell membranes; pH 7.5, n = 4, Papp × water solubility
  Maximal administration rate Jmax × 10^−6 ± SD: 723 ± 34 × 10^−6 mg/(cm^2 s)
MDCK cell membranes; pH 8.0, n = 4, Papp × water solubility
  Maximal administration rate Jmax × 10^−6 ± SD: 10.6 ± 1.1 × 10^−6 mg/(cm^2 s)
[3]
  pKa: 7.63
[4]; FAH+ subjects, 10 mg once daily
  number of HDDs: smaller reduction in the early phase of the treatment
[4]; FAH+ subjects, 10 mg, first month of treatment
  total alcohol consumption and number of HDDs: positive tendency
[4]; FAH+ subjects, 10 mg
  Spouse or significant other estimate of frequency of intoxication: At least once a week (number of subjects): 4
  Spouse or significant other estimate of frequency of intoxication: At least once a week (share of subjects): 21%
  Spouse or significant other estimate of frequency of intoxication: Every day (number of subjects): 0
  Spouse or significant other estimate of frequency of intoxication: Every day (share of subjects): 0%
  Spouse or significant other estimate of frequency of intoxication: Never (number of subjects): 1
  Spouse or significant other estimate of frequency of intoxication: Never (share of subjects): 5%
  Spouse or significant other estimate of frequency of intoxication: Once or twice (number of subjects): 6
  Spouse or significant other estimate of frequency of intoxication: Once or twice (share of subjects): 32%
  Spouse or significant other estimate of frequency of intoxication: Several times a month (number of subjects): 8
  Spouse or significant other estimate of frequency of intoxication: Several times a month (share of subjects): 42%
[4]; FAH+ subjects, 40 mg daily oral, 4th month of treatment
  reduction of mean number of HDDs versus baseline: about 60%
[4]; FAH+ subjects, 40 mg daily, after treatment, baseline 85%
  ratio of the number of HDDs to DDs: 43%
[4]; FAH+ subjects, 40 mg once daily
  number of DDs: clear reduction
[4]; FAH+ subjects, 40 mg once daily oral, on treatment, baseline 14.5
  mean number of HDDs per month (28 days): 6.0
[4]; FAH+ subjects, 40 mg, 4th month
  mean number of drinks (monthly total alcohol consumption) as % of baseline: about 40%
[4]; FAH+ subjects, 40 mg
  Spouse or significant other estimate of frequency of intoxication: At least once a week (number of subjects): 0
  Spouse or significant other estimate of frequency of intoxication: At least once a week (share of subjects): 0%
  Spouse or significant other estimate of frequency of intoxication: Every day (number of subjects): 0
  Spouse or significant other estimate of frequency of intoxication: Every day (share of subjects): 0%
  Spouse or significant other estimate of frequency of intoxication: Never (number of subjects): 3
  Spouse or significant other estimate of frequency of intoxication: Never (share of subjects): 14%
  Spouse or significant other estimate of frequency of intoxication: Once or twice (number of subjects): 9
  Spouse or significant other estimate of frequency of intoxication: Once or twice (share of subjects): 41%
  Spouse or significant other estimate of frequency of intoxication: Several times a month (number of subjects): 14
  Spouse or significant other estimate of frequency of intoxication: Several times a month (share of subjects): 45%
[4]; FAH+ subjects, daily oral 40 mg, fourth month of treatment (as worded)
  mean number of heavy drinking days reduced by: 40%
[4]; FAH- subjects
  treatment effects on alcohol consumption versus placebo: not distinguishable from placebo
[4]; FAH- subjects, 10 mg
  Spouse or significant other estimate of frequency of intoxication: At least once a week (number of subjects): 1
  Spouse or significant other estimate of frequency of intoxication: At least once a week (share of subjects): 9%
  Spouse or significant other estimate of frequency of intoxication: Every day (number of subjects): 1
  Spouse or significant other estimate of frequency of intoxication: Every day (share of subjects): 9%
  Spouse or significant other estimate of frequency of intoxication: Never (number of subjects): 1
  Spouse or significant other estimate of frequency of intoxication: Never (share of subjects): 9%
  Spouse or significant other estimate of frequency of intoxication: Once or twice (number of subjects): 4
  Spouse or significant other estimate of frequency of intoxication: Once or twice (share of subjects): 36%
  Spouse or significant other estimate of frequency of intoxication: Several times a month (number of subjects): 4
  Spouse or significant other estimate of frequency of intoxication: Several times a month (share of subjects): 36%
[4]; FAH- subjects, 40 mg
  Spouse or significant other estimate of frequency of intoxication: At least once a week (number of subjects): 1
  Spouse or significant other estimate of frequency of intoxication: At least once a week (share of subjects): 8%
  Spouse or significant other estimate of frequency of intoxication: Every day (number of subjects): 1
  Spouse or significant other estimate of frequency of intoxication: Every day (share of subjects): 8%
  Spouse or significant other estimate of frequency of intoxication: Never (number of subjects): 2
  Spouse or significant other estimate of frequency of intoxication: Never (share of subjects): 15%
  Spouse or significant other estimate of frequency of intoxication: Once or twice (number of subjects): 3
  Spouse or significant other estimate of frequency of intoxication: Once or twice (share of subjects): 23%
  Spouse or significant other estimate of frequency of intoxication: Several times a month (number of subjects): 5
  Spouse or significant other estimate of frequency of intoxication: Several times a month (share of subjects): 38%
[4]; FAH- subjects, nalmefene 10 mg or 40 mg once daily
  number of HDDs: no clear treatment effects
[4]; FAH- subjects, throughout the study
  mean number of drinks (monthly total alcohol consumption): remained almost unchanged

## C=C1CC[C@@]2(O)[C@H]3Cc4ccc(O)c5c4[C@@]2(CCN3CC2CC2)[C@H]1O5 [Nalmefene HCl]
[5]; pH 6.5, from diagram of log solubility of Table 5 vs pH
  solubility: 112 mg/mL
[5]; pH 7.0, from diagram of log solubility of Table 5 vs pH
  solubility: 88.6 mg/mL
[5]; pH 7.5, from diagram of log solubility of Table 5 vs pH
  solubility: 31.9 mg/mL
[5]; pH 8.0, from diagram of log solubility of Table 5 vs pH
  solubility: 0.44 mg/mL
[6]; pH 2.25
  Solubility in water: 128 mg/mL
[6]; pH 5.71
  Solubility in water: 131 mg/mL
[6]; pH 6.115
  Solubility in water: 133 mg/mL
[6]; pH 6.25
  Solubility in water: 124 mg/mL
[6]; pH 7.85
  Solubility in water: 1.09 mg/mL
[6]; pH 8.5
  Solubility in water: 0.180 mg/mL
[6]; pH 9.15
  Solubility in water: 0.090 mg/mL
[6]; pH 10.4
  Solubility in water: 0.230 mg/mL

— patent publication US20030153590A1, “Method of treating alcoholism or alcohol abuse” (OY CONTRAL PHARMA LTD, priority 2001, published 2003)
